# Data reported in PubChem BioAssay AID328 (DTP/NCI, 2004).
# Where “and” joins values, the source holds several entries; their conditions need not be identical. Equal values may be shown once. Inconclusive results and toxic doses are left out.
# Tested on: BDF1 mice, P388 leukemia ip, median survival T/C
# Experiment: NCI In Vivo Anticancer Drug Screen. Data for tumor model P388 Leukemia (intraperitoneal) in B6D2F1 (BDF1) mice
# Conditions: endpoint: median survival time, higher = longer survival
# Summary of the method: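 T/C = treated-group survival ÷ vehicle-control survival; tumour transplanted into mice before dosing.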
# [1] = dose: 100.0 mg/kg/injection, schedule: Q04DX003 (ip), vehicle: saline with Tween-80
# [2] = dose: 100.0 mg/kg/injection, schedule: Q01DX009 (ip), vehicle: Klucel (hydroxypropylcellulose) (HPC)
# [3] = dose: 50.0 mg/kg/injection, schedule: Q01DX009 (ip), vehicle: saline
# [4] = dose: 100.0 mg/kg/injection, schedule: Q04DX003 (ip), vehicle: saline
# [5] = dose: 200.0 mg/kg/injection, schedule: Q04DX003 (ip), vehicle: saline
# [6] = dose: 100.0 mg/kg/injection, schedule: Q01DX009 (ip), vehicle: saline
# [7] = dose: 200.0 mg/kg/injection, schedule: Q01DX009 (ip), vehicle: saline
# [8] = dose: 400.0 mg/kg/injection, schedule: Q01DX009 (ip), vehicle: saline
# [9] = dose: 200.0 mg/kg/injection, schedule: Q04DX003 (ip), vehicle: saline with Tween-80
# [10] = dose: 400.0 mg/kg/injection, schedule: Q04DX003 (ip), vehicle: saline with Tween-80
# [11] = dose: 400.0 mg/kg/injection, schedule: Q04DX003 (ip), vehicle: saline
# [12] = dose: 50.0 mg/kg/injection, schedule: Q01DX009 (ip), vehicle: saline with Tween-80
# [13] = dose: 100.0 mg/kg/injection, schedule: Q01DX009 (ip), vehicle: saline with Tween-80
# [14] = dose: 25.0 mg/kg/injection, schedule: Q04DX003 (ip), vehicle: Klucel (hydroxypropylcellulose) (HPC)
# [15] = dose: 50.0 mg/kg/injection, schedule: Q04DX003 (ip), vehicle: saline
smiles,measurement,setting,value
CC1CCCC(NC(=O)N(CCCl)N=O)C1 (stereo unspecified),T/C,"dose: 0.25 mg/kg/injection, schedule: Q04DX003 (ip), vehicle: saline with Tween-80",115 % of control
same,T/C,"dose: 0.5 mg/kg/injection, schedule: Q04DX003 (ip), vehicle: saline with Tween-80",100 % of control
same,T/C,"dose: 1.0 mg/kg/injection, schedule: Q04DX003 (ip), vehicle: saline with Tween-80",95 % of control
same,T/C,"dose: 16.5 mg/kg/injection, schedule: Q04DX003 (ip), vehicle: saline with Tween-80",240 % of control
same,T/C,"dose: 25.0 mg/kg/injection, schedule: Q04DX003 (ip), vehicle: saline with Tween-80",259 % of control
same,T/C,"dose: 37.5 mg/kg/injection, schedule: Q04DX003 (ip), vehicle: saline with Tween-80",272 % of control
same,T/C,[1],177 % of control
CCCOC(=O)c1ccc([N+](=O)[O-])cc1,T/C,[2],95 % of control
same,T/C,"dose: 200.0 mg/kg/injection, schedule: Q01DX009 (ip), vehicle: Klucel (hydroxypropylcellulose) (HPC)",100 % of control
same,T/C,"dose: 400.0 mg/kg/injection, schedule: Q01DX009 (ip), vehicle: Klucel (hydroxypropylcellulose) (HPC)",100 % of control
C(#C[P+]1(c2ccccc2)C=C(c2ccccc2)OC(c2ccccc2)=C1)c1ccccc1,T/C,"dose: 50.0 mg/kg/injection, schedule: Q01DX005 (ip), vehicle: saline with Tween-80",110 % of control
NNC(=O)NC(=O)NN,T/C,[3],104 % of control
same,T/C,[4],113 % of control
same,T/C,[5],113 % of control
CC(C)C1CCC2=C(CCC3C(C)(C(=O)O)CCCC23C)C1 (stereo unspecified),T/C,[6],109 % of control
same,T/C,[7],100 % of control
same,T/C,[8],100 % of control
CCCCN(C)N=Nc1ccc(CCC(=O)OCC)cc1,T/C,"dose: 78.0 mg/kg/injection, schedule: Q04DX003 (ip), vehicle: saline with Tween-80",100 % of control
same,T/C,"dose: 118.0 mg/kg/injection, schedule: Q04DX003 (ip), vehicle: saline with Tween-80",118 % of control
same,T/C,"dose: 177.0 mg/kg/injection, schedule: Q04DX003 (ip), vehicle: saline with Tween-80",104 % of control
same,T/C,[9],118 % of control
same,T/C,[10],150 % of control and 168 % of control
same,T/C,"dose: 600.0 mg/kg/injection, schedule: Q04DX003 (ip), vehicle: saline with Tween-80",184 % of control
CC1=CC(=O)OC(C)(C)C1,T/C,[4],100 % of control
same,T/C,[5],100 % of control
same,T/C,[11],100 % of control
CN(C)c1ccc(/C=C/c2ccnc3ccc(Br)cc23)cc1,T/C,[12],109 % of control
same,T/C,[13],114 % of control
same,T/C,"dose: 200.0 mg/kg/injection, schedule: Q01DX009 (ip), vehicle: saline with Tween-80",116 % of control
C(#CCN1CCCC1)CCCN1CCCC1,T/C,"dose: 25.0 mg/kg/injection, schedule: Q01DX009 (ip), vehicle: saline with Tween-80",111 % of control
same,T/C,[12],92 % of control
same,T/C,"dose: 50.0 mg/kg/injection, schedule: Q04DX003 (ip), vehicle: saline with Tween-80",91 % of control
same,T/C,[13],92 % of control
same,T/C,[1],91 % of control
COc1cc(C=Nc2ccc3c(c2)Cc2ccccc2-3)ccc1O,T/C,"dose: 50.0 mg/kg/injection, schedule: Q04DX003 (ip), vehicle: saline sonified",104 % of control
same,T/C,"dose: 200.0 mg/kg/injection, schedule: Q04DX003 (ip), vehicle: saline sonified",95 % of control
COc1cc(C=Nc2ccc(C(=O)O)c(O)c2)ccc1N(CCCl)CCCl,T/C,"dose: 3.6 mg/kg/injection, schedule: Q01DX009 (ip), vehicle: Klucel (hydroxypropylcellulose) (HPC)",196 % of control
same,T/C,"dose: 5.4 mg/kg/injection, schedule: Q01DX009 (ip), vehicle: Klucel (hydroxypropylcellulose) (HPC)",94 % of control
same,T/C,"dose: 8.2 mg/kg/injection, schedule: Q01DX009 (ip), vehicle: Klucel (hydroxypropylcellulose) (HPC)",245 % of control
same,T/C,"dose: 8.3 mg/kg/injection, schedule: Q01DX009 (ip), vehicle: Klucel (hydroxypropylcellulose) (HPC)",184 % of control
same,T/C,"dose: 12.5 mg/kg/injection, schedule: Q01DX009 (ip), vehicle: Klucel (hydroxypropylcellulose) (HPC)",230 % of control and 272 % of control and 213 % of control
same,T/C,"dose: 12.5 mg/kg/injection, schedule: Q04DX003 (ip), vehicle: Klucel (hydroxypropylcellulose) (HPC)",115 % of control
same,T/C,"dose: 18.75 mg/kg/injection, schedule: Q01DX009 (ip), vehicle: Klucel (hydroxypropylcellulose) (HPC)",96 % of control
same,T/C,[14],115 % of control
same,T/C,"dose: 50.0 mg/kg/injection, schedule: Q04DX003 (ip), vehicle: Klucel (hydroxypropylcellulose) (HPC)",100 % of control
CC(=N/O)/C(C)=N\O,T/C,"dose: 6.25 mg/kg/injection, schedule: Q01DX009 (ip), vehicle: Klucel (hydroxypropylcellulose) (HPC)",110 % of control
same,T/C,"dose: 25.0 mg/kg/injection, schedule: Q01DX009 (ip), vehicle: Klucel (hydroxypropylcellulose) (HPC)",95 % of control
same,T/C,[14],95 % of control
same,T/C,"dose: 50.0 mg/kg/injection, schedule: Q01DX009 (ip), vehicle: Klucel (hydroxypropylcellulose) (HPC)",110 % of control and 120 % of control
same,T/C,"dose: 75.0 mg/kg/injection, schedule: Q01DX009 (ip), vehicle: Klucel (hydroxypropylcellulose) (HPC)",100 % of control
same,T/C,[2],120 % of control
same,T/C,"dose: 100.0 mg/kg/injection, schedule: Q04DX003 (ip), vehicle: Klucel (hydroxypropylcellulose) (HPC)",95 % of control
same,T/C,"dose: 100.0 mg/kg/injection, schedule: Q04DX003 (ip), vehicle: other",100 % of control
Nc1ccc(N(CCCl)CCN(CCCl)c2ccc(N)cc2)cc1,T/C,"dose: 0.8 mg/kg/injection, schedule: Q01DX009 (ip), vehicle: saline",154 % of control
same,T/C,"dose: 1.2 mg/kg/injection, schedule: Q01DX009 (ip), vehicle: saline",181 % of control
same,T/C,"dose: 1.8 mg/kg/injection, schedule: Q01DX009 (ip), vehicle: saline",204 % of control
C1CNCOC1,T/C,"dose: 25.0 mg/kg/injection, schedule: Q04DX003 (ip), vehicle: saline",105 % of control
same,T/C,[15],119 % of control
CC1(C)c2ccccc2C(=O)C1Cc1ccccc1 (stereo unspecified),T/C,[3],93 % of control
same,T/C,[15],109 % of control
same,T/C,[6],98 % of control
same,T/C,[4],119 % of control
same,T/C,[7],121 % of control
same,T/C,[5],119 % of control
same,T/C,[8],119 % of control
same,T/C,[11],109 % of control
CC(C)(C)c1ccc(Sc2cccc3c2C(=O)c2c(Cl)cccc2C3=O)cc1,T/C,[1],90 % of control
same,T/C,[9],88 % of control
same,T/C,[10],92 % of control
COc1ccccc1Cc1c(OC)cc(OC)c(C(=O)CCc2ccccc2)c1O,T/C,"dose: 0.5 mg/kg/injection, schedule: Q01DX009 (ip), vehicle: saline",103 % of control
same,T/C,"dose: 1.0 mg/kg/injection, schedule: Q01DX009 (ip), vehicle: saline",106 % of control
CSc1nc(N)nc2nc[nH]c12,T/C,[12],109 % of control
same,T/C,[13],104 % of control
CCOC(C[Se][Se]CC(OCC)OCC)OCC,T/C,"dose: 1.56 mg/kg/injection, schedule: Q01DX009 (ip), vehicle: saline",99 % of control
same,T/C,"dose: 3.13 mg/kg/injection, schedule: Q01DX009 (ip), vehicle: saline",102 % of control
same,T/C,"dose: 6.25 mg/kg/injection, schedule: Q01DX009 (ip), vehicle: saline",102 % of control
